Results as given in patent publication US8772493B2, “Compounds having auditory protective effect” (Ajou University Industry-Academic Cooperation Foundation, priority 2010, dated 2014).

How the values were obtained:
HEI-OC1 [1] = test: Measurement of mitochondrial membrane potential (MMP), JC-1; type: cell-based
Description: The mitochondrial membrane potential (MMP) was measured using 5,5V,6,6V-tetrachloro-1,1V,3,3V-tetraethylbenzimidazolcarbocyanine iodide (JC-1; Molecular Probes) as a lipophilic cationic probe.
JC-1 is a fluorescent dye which is accumulated by mitochondria in its inside. If the function of mitochondria is normal, MMP is high and mitochondria are predominantly red. Then, if mitochondria are damaged, MMP is reduced and mitochondria are changed into green.

zebrafish neuromast [2] = test: Scanning and transmission electron microscopy of zebrafish neuromast; type: in vivo, Danio rerio; settings: 50 μM cisplatin
Description: They were dried with a drier, treated with an evaporator (MED010; Baltec, Hudson, N.H.), and then observed using a scanning microscope (JSM-6700F JEOL, Tokyo, Japan).
Larvae were cut in the direction from head to tail, sliced to a thickness of […], and then stained with 1% toluidine blue. They were divided into ultrathin sections (90 nm) using Ultracut S microtome (Leica, Wetzlar, Germany), mounted on 200-mesh Athene thin bar-grids, treated with uranyl acetate and lead citrate, and then observed using s transmission electron microscope (EM 902A Carl Zeiss).

auditory cells = test: FACScan with Annexin-V and PI double staining; type: cell-based
Description: The degree of apoptosis was analyzed with Annexin V-FITC Apoptosis Detection kit I (BD Biosciences, San Diego, Calif.). 3×10^5 cells were seeded on 60 mm dish, incubated, then starved for 24 hours, and treated with the compounds of Examples 1 and 2 by conditions and incubated for 24 hours. After removing the culture solution, the cells were washed two times with PBS, and suspended in the binding buffer in the ratio of 1×10^6 cells/ml. 100 μl of this solution was transferred to 5 ml tube, and after addition of 5 μl of Annexin V-FITC to the tube, well mixed together, and then reacted for about 15 minutes in the dark place. Then, 400 μl of the binding buffer was added, and the cells were counted until 10,000 cells were on Becton Dicki nson FACSscan (Lysis II Ver. 1.0). The degree of apoptosis was measured depending on the expression of Annexin V-FITC from the result of FACScan flowcytometry. In addition, the degree of apoptosis was also measured under fluorescence microscope.

UB-OC1 = test: MTT assay in auditory cells UB-OC1; type: cell-based
Description: (§1) HEI-OC1 and UB-OC1 as auditory cells were subjected to MTT assay. Auditory cell lines were seeded on a 96-well plate in the ratio of 2×10^3 cells/well, and then cultured in an incubator under the condition of 37° C., 5% CO2 for 2 days. The compounds of Examples 1 and 2 were used at various concentrations with operating 5 runs for each sample, and then cultured in the incubator for 16 hours. The plate was treated with 1 mg/ml MTT solution per well, and then cultured in the incubator for 4 hours. Then, 100 μl DMSO per well was used to dissolve formazan, and the optical density of formazan as dissolved was measured at 540 nm.

zebrafish neuromast [3] = test: Observation of zebrafish neuromast using fluorescent microscope (Yo-Pro-1); type: in vivo, Danio rerio
Description: When embryo of zebrafish (Danio rerio) wild type is on the 4th day, the drugs (compounds of Examples 1 and 2) were added to 2 ml of embryo media in 6 well, and then 5 embryos were added to each group and reacted with the drug in the incubator maintained at 28.5° C. for one hour. After reaction, embryos were washed three times with embryo media, and then placed in clean embryo media for 3 hours. After 3 hours, […] of Yo-Pro-1 (molecular probes, Oregon U.S.A) was added to embryo media, and then reacted for one hour in the place with blocking the light. After reaction, embryos were washed again three times with clean embryo media, and anesthetized with 8 μg/ml of MS222 (3-aminobenzoic aid ethyl ester, methanesulfonate salt, Sigma Chemical CO, St Louis, U.S.A) anesthetic.

HEI-OC1 [4] = test: MTT assay in auditory cells HEI-OC1; type: cell-based; settings: for cytotoxicity in auditory hair cells (MTT): HEI-OC1, compound alone, up to elevated dose of 200
Description: as §1

neuromasts of zebrafish = type: in vivo; settings: 4 dpf larvae, 50 μM cisplatin co-treatment with compound
Description: To detect the apoptotic cells in the embryos, TUNEL assay was employed. […] Thereafter, the larvae were washed with PBS and fixed in 4% paraformaldehyde with 0.1% Tween 20 at room temperature for 24 h. The fixed embryos were then dehydrated, rehydrated, and treated with 60 μg/ml protease kinase (Invitrogen, USA) for 10 min. After the protease kinase treatment, the embryos were fixed in 4% paraformaldehyde in PBS with 0.1% Tween 20 again. The TUNEL staining was achieved by using an in situ apoptosis detection kit. The fixed embryos were immersed in the permeabilization buffer for 30 min on ice. The apoptotic cells were labeled by staining the embryos in a mixture of Terminal Deoxynucleotidyl Transferase (TdT) enzyme and labeling safe buffer containing Fluorescein labeled-2′-Deoxyuridine, 5′-Triphosphate, FITC-dUTP in the ratio of 1 to 9. The embryos were then incubated in a 37° C. humidified chamber for 120 min. The embryos were finally washed thoroughly by PBS in 0.1% Tween 20. The apoptotic signals were captured by a fluorescence microscope (Carl Zeiss, Oberkochen, Germany).

HEI-OC1 cells [5] = test: Measurement of intracellular ROS generation (DCFDA); type: cell-based
Description: Intracellular generation of ROS was quantified using 5-(and 6)-carboxyl-20,70-dichlorodihydro fluorescein diacetate (DCFDA; Molecular Probes, Eugene, Oreg., USA). […] ROS generation at various time points was checked and the amount of ROS generation was the highest at 16 h. Therefore, 16 h as the time point for ROS detection was chosen for subsequent experiments. Cells were incubated in the dark with 10 μM DCFDA in serum-free medium for 10 min at 33° C. The oxidative burst (hydrogen peroxide, H2O2) was detected using a FACScan flow cytometer (Becton Dickinson, Franklin Lakes, N.J., USA) with excitation and emission settings at 488 and 530 nm, respectively.

HEI-OC1 [6] = test: TUNEL assay; type: cell-based
Description: 3×10^5 cells were seeded on the 6-well, incubated, then starved for 24 hours, and treated with the drug of the present invention by conditions, and then incubated for 24 hours. The cells were fixed with addition of 4% paraformaldehyde at normal temperature for 30 minutes, then washed two times with PBS, and treated with the permeablilization solution comprising 0.1% Triton X-100 at normal temperature for 10 minutes. The cells were washed again two times with PBS, and after adding terminal deoxynucleotidyl transferase (TDT) and nucleotide mixture, incubated for one hour with blocking out the light at 37° C. After washing two times with PBS, the apoptosis of cells was examined under fluorescence microscope. For control staining of cells without apoptosis, 4,6-diamino-2-phenylindole (DAPI, Sigma) solution was used. The stained cells were analyzed using a fluorescence microscope (Carl Zeiss, Oberkochen, Germany). TUNEL-positive cells were manually counted under a 200× magnification field in triplicate.

[7] = test system: zebrafish (Danio rerio) embryo; test: Drug toxicity in zebrafish and effect on zebrafish embryos; type: in vivo
Description: To identify the drug toxicity of the compound of the present invention, zebrafish (Danio rerio) embryo was treated with the compound of Example 1 by concentrations (0, 50, 100, 150, 200, 400 μM), and then cultured in the incubator at 28.5° C. for one hour, washed three times with fresh 0.3× Danieu's Solution, and then cultured at 28.5° C. for 3 hours. The embryotoxicity was identified by examining the hatching rate, organogenesis, development, etc. of embryo under a microscope (AXIO vert 200, Carl zeiss, Gottingen, Germany), and the survival rate of embryo was determined depending on whether the cardiac contractility of embryo is present or absent.
Further, to determine the general toxicity of the compound of Example 1, the influence of the compound of Example 1 on embryos of zebrafish were tested. One female and two male sexually mature zebrafish were maintained for a 14 h light/10 h dark photoperiod. Several rectangular mesh wire boxes were placed at the bottom of the aquaria to collect the eggs the following morning. The eggs were pre-treated with the compound of Example 1 (100 μg/ml) for 1 hr, after then the eggs were washed twice with sea salt 1×. […] After three washes with sea salt 1×, the zebrafish eggs were observed under a microscope.

[8] = test system: JNK, p38, cleaved caspase 3, PARP in HEI-OC1; test: Western blotting of apoptosis-related proteins; type: cell-based
rat hearing [9] = test: Measurement of brainstem evoked potential hearing in rat; type: in vivo; settings: cisplatin in combination with compound (2 mM inside eardrum)
Description: Rats were anesthetized with a mixed anesthetic of 1:1 zoletil and rompun, and then subjected to the examination of brainstem evoked potential hearing. […] The stimulus sound was measured by lowering 13 times/sec of the alternating click sound from the strength of 75 dB HL at the ratio of 5 dB per step. The hearing threshold was defined to be a strength at which the normal wave form I is assumed on the basis of the wave form I, the frequency filter of click sound was controlled to 100-3000 Hz, and the number of total stimulus sound was 1,024.
The drug was administered inside eardrum of rats with a 26 gage needle. The brainstem evoked potential hearing was measured a total of three times on days 1, 3 and 7 after administration of the drug.

HEI-OC1 cells [10] = test: Cell cycle analysis using FACScan; type: cell-based
Description: The cells were treated with trypsin, washed with PBS, and then stained with a dye (5 mg/ml propidium iodide, 20 mg/ml RNase A) in a dark room at normal temperature for 15 minutes. The stained cells were analyzed with a flow cytometry cell sorter (Becton Dickinson).

rat hearing [11] = test: Auditory brainstem responses after transtympanic injection in rat; type: in vivo, Sprague-Dawley rats; settings: rat ears pretreated with transtympanic compound (2 mM), then cisplatin
Description: Sixteen female Sprague-Dawley rats (Samtaco, Osan, Korea) weighing between 180 and 220 g were used. After transportation, the animals were maintained in the central animal laboratory for at least 1 week. The animals were housed in independently ventilated cages and were allowed free access to water and food. The temperature was maintained at 21±1° C., and the lights were turned on from 8:00 AM to 8:00 PM. Rats with an inner ear infection were not used. This study was approved by the Committee for Ethics in Animal Experiments of the Ajou University School of Medicine.
Animals were sedated using an intraperitoneal (IP) injection of 3.125 mg/kg xylazine, 3.125 mg/kg zolazepam and 11.5 mg/kg xylazine. The rats were divided into two groups after baseline auditory brainstem response (ABR) testing was performed. […] The control group (four rats, eight ears) received transtympanic saline in both ears followed by IP saline (16 mL/kg by IP infusion). […] Posttreatment ABR was obtained on day 14.
Preyer's reflex and otoscopy were used to confirm that the middle ears were normal. The rats were anaesthetized using an IP injection of 3.125 mg/kg zolazepam and 11.5 mg/kg xylazine. Subdermal sterile stainless steel electrode needles were attached, with the active lead at the vertex that referred to a second electrode located at the tip of the nose. The grounding electrode was placed on the front paw muscles. […]

rat cochlea = test: Tissue TUNEL assay of rat cochlea; type: in vivo; settings: cisplatin only
Description: Animals were sedated using an intraperitoneal (IP) injection of 3.125 mg/kg xylazine, 3.125 mg/kg zolazepam and […]. The rats were divided into two groups after baseline auditory brainstem response (ABR) testing was performed. […] The control group (four rats, eight ears) received transtympanic saline in both ears followed by IP saline (16 mL/kg by IP infusion). The compound of Example 2 only group (four rats, eight ears) received transtympanic the compound of Example 2 in both ears followed by IP saline (16 mL/kg by IP infusion). On days 2 to 5, daily transtympanic injections of either 2 mM the compound of Example 2 or saline were continued. Posttreatment ABR was obtained on day 14.
After fixation by intralabyrinthine perfusion of 4% paraformaldehyde (pH 7.4), the cochleae were removed and then were incubated in the same fixative overnight. Decalcification was performed in ethylenediamine tetraacetic acid solution (EDTA) (10% in PBS) for 3-4 weeks. Subsequently, the tissues were embedded in paraffin.
Organ of Corti explants were each fixed for 15 min in 3.7% (v/v) formaldehyde in PBS at room temperature. Each explant was rinsed with PBS and incubated in proteinase K diluted from the TUNEL kit for 15 min at room temperature. […] Each explant was washed twice with PBS and examined using a fluorescence microscope.

NC1(c2ccc(F)cc2)C(=O)Nc2ccccc2C1=O (centres unmarked) [Example 1, 3-amino-3-(4-fluorophenyl)quinolin-2,4(1H,3H)-dione]
cisplatin-induced mitochondria damage (loss of MMP, green fluorescence) (HEI-OC1 [1]; cisplatin plus compound): inhibited | damage of kinocilium and stereocilia caused by cisplatin (SEM, TEM) (zebrafish neuromast [2]; combined use of compound): inhibited the damage of kinocilium and stereocilia | apoptosis increased by cisplatin (annexin/PI FACS), simultaneous administration of compound (auditory cells; 50 μM of cisplatin plus compound): statistically significantly inhibited | effect of 100 μM compared to 50 μM of compound (annexin/PI FACS) (auditory cells; with 50 μM cisplatin, dose-dependent manner): better effect | cisplatin-induced apoptosis of auditory hair cells (MTT) (UB-OC1; UB-OC1, 50 of cisplatin plus compound, as the dose of the compound increases): statistically significantly inhibited | cytotoxicity in auditory hair cells (MTT) (UB-OC1; UB-OC1, compound alone, up to elevated dose of 200): substantially no cytotoxicity | neuromast including auditory hair cells disappeared by cisplatin (zebrafish neuromast [3]; cisplatin plus compound, dose-dependent): effectively protected | cisplatin-induced apoptosis of auditory hair cells (MTT) (HEI-OC1 [4]; HEI-OC1, 50 of cisplatin plus compound, as the dose of the compound increases): statistically significantly inhibited | cytotoxicity in auditory hair cells (MTT) (HEI-OC1 [4]): substantially no cytotoxicity | TUNEL positive cells in zebrafish larvae compared to cisplatin alone (neuromasts of zebrafish): reduced TUNEL positive cells | cisplatin-induced intracellular ROS generation (HEI-OC1 cells [5]; 50 μM cisplatin plus compound (100 μg/ml), 16 h): significantly inhibited | apoptosis of auditory cells (TUNEL), cisplatin and compound at the same time (HEI-OC1 [6]; cisplatin (50 μM with Example 1, 20 μM with Example 2) and compound administered at the same time): inhibited | apoptosis (TUNEL positive cells) on administration of compound alone (HEI-OC1 [6]): did not cause apoptosis | effect of 100 μM compared to 50 μM of compound (TUNEL) (HEI-OC1 [6]; with cisplatin, dose-dependent manner): better effect | drug toxicity for 7 days after incubation of zebrafish ([7]; 50, 100, 150, 200, 400 μM): did not show the drug toxicity | zebrafish embryos, damage caused by cisplatin ([7]; cisplatin (50 μM) plus compound, 24 h): rescued | embryotoxicity in zebrafish model ([7]; even at the concentration of 400 μM): did not show the drug toxicity | cisplatin-induced JNK, p38, cleaved caspase 3, PARP ([8]; cisplatin plus compound): effectively inhibited | hearing threshold (rat hearing [9]): 25˜35 dB | cisplatin-induced increase in sub G1 (HEI-OC1 cells [10]; cisplatin plus compound): effectively reduced

NC1(c2ccc(F)cc2)C(=O)Nc2cccc(F)c2C1=O (centres unmarked) [Example 2, 3-amino-5-fluoro-3-(4-fluorophenyl)quinolin-2,4(1H,3H)-dione]
average click-evoked ABR threshold shift (rat hearing [11]): 38.5±11.3 dB | click-evoked ABR threshold shift, range (rat hearing [11]): 27-49 dB | cytotoxicity in auditory hair cells (MTT) (HEI-OC1 [4]): substantially same result | apoptosis (TUNEL positive cells) on administration of compound alone (HEI-OC1 [6]): did not cause apoptosis

N.N.[Cl][Pt][Cl] [cisplatin, reference compound]
TUNEL positive cells in cochlea versus control group (rat cochlea): more numerous | mitochondrial membrane potential (JC-1 fluorescence) (HEI-OC1 [1]; cisplatin alone): changed into green fluorescence | kinocilium of auditory cells of neuromast (SEM, TEM) (zebrafish neuromast [2]): markedly damaged or mostly disappeared or fused | apoptosis (annexin/PI FACS) (auditory cells; 50 μM of cisplatin): increased | auditory hair cells killed by cisplatin (MTT) (UB-OC1; UB-OC1, 50 of cisplatin): about 50% | reduction of neuromast (zebrafish neuromast [3]; 50 μM cisplatin, zebrafish 4th day): ≥ 70% | neuromast (zebrafish neuromast [3]; 100 μM cisplatin, zebrafish 4th day): substantially all of neuromast was disappeared | auditory hair cells killed by cisplatin (MTT) (HEI-OC1 [4]; HEI-OC1, 50 of cisplatin): about 50% | generation of intracellular ROS (HEI-OC1 cells [5]; cisplatin, time-dependent): significantly increased | JNK, p38, cleaved caspase 3, PARP ([8]; cisplatin alone): increased | sub G1 related to apoptosis (HEI-OC1 cells [10]; cisplatin alone): increase
